{
  "source": "patent US20220170940A1",
  "about": "“BIOMARKER WITH THERAPEUTIC IMPLICATIONS FOR PERITONEAL CARCINOMATOSIS” (SINGAPORE HEALTH SERVICES PTE LTD, priority 2019, published 2022)",
  "key": {"Colo-205 cells [1]": {"tested_on": "Colo-205 cells", "test": "In vitro drug treatment, CellTitreGlo proliferation of cell-free ascites-treated cells", "assay_type": "cell-based, Human", "conditions": "5% cell-free ascites of PPA, CAP, APA groups or FBS control, 72 hours", "procedure": "A total of 5,000 cells/wells were seeded in 96-well plates and were grown for 24 hours in serum-free RPMI medium supplemented with 5% cell-free ascites or complete media, and then treated with various concentrations of TM5441 (PAI-1 inhibitor), Tiplaxtinin (PAI-1 inhibitor), Napabucasin (STAT3 inhibitor), BEZ235 (dual PI3K/mTOR inhibitor) and Mitomycin C (chemotherapeutic agent used in hyperthermic intraperitoneal chemotherapy (HIPEC)) for 72 hours. Cell proliferation was assessed using CellTitreGlo assay (Promega, Madison, US). These experiments were performed in triplicates and were repeated at least 3 times."}, "phospho-STAT3 (Tyr705)": {"tested_on": "phospho-STAT3 (Tyr705)", "test": "p-STAT3 (Y705) ELISA of cell-free ascites-treated cancer cells with TM5441", "assay_type": "cell-based, Human", "conditions": "cells exposed to PPA cell-free ascites (PC085, PC383) versus CAP (PC249) and APA (PC010)", "procedure": "Concentrations of PAI-1 (DSE100), IL6 (D6050), IL10 (D1000B), CCL2 (DCP00), MMP9 (DMP900), ANGPT1 (DANG10), TGFB1 (DB100B), and CXCL10 (DIP100) in cell-free ascites were quantified using human Quantikine ELISA kits from R&D Systems. Concentrations of POSTN (DY3548B) and CD44 (DY7045-05) in cell-free ascites were quantified using human DuoSet ELISA kits from R&D Systems. VSIG4 (ELH-VSIG4-1) concentration in cell-free ascites was quantified using ELISA from RayBiotech. All samples were performed with 2 technical replicates according to the manufacturers' instructions. Total STAT3 and phospho-STAT3 (Tyr705) were detected with ELISA (7305C and 7300C, Cell Signalling Technology, Massachusetts, US). Proteins were isolated from cell lysates of Colo-205 and SNU-C1 that were treated with 5% cell-free ascites for 24 hours. In all experiments, 25 μg of protein was used for total STAT3 and p-STAT3(Y705) ELISA following the manufacturer's instructions."}, "[2]": {"tested_on": "IL6-JAK-STAT3 signalling pathway", "test": "Gene expression profiling (RNA microarray, GSEA) upon PAI-1 inhibition", "assay_type": "cell-based, Human", "conditions": "Colo-205 cells, PPA cell-free ascites (PC085), 27.25 μM TM5441 vs DMSO, 24 hours", "procedure": "To assess signalling pathways affected by PAI-1 inhibition, Colo-205 cells were treated with cell-free ascites representative of PAI-1 paracrine addicted (PPA) group, co-activators predominant (CAP) group or foetal bovine serum (FBS; control) in the presence of DMSO vehicle or 27.25 μM TM5441 for 24 hours. Total RNA was isolated using Qiagen Mini Kit (Qiagen, CA, USA), following the manufacturer's instructions. Gene expression profiling was performed using Affymetrix GeneChip Genome U133 Plus 2.0 microarray platform (Affymetrix, Santa Clara, Calif.) in accordance to manufacturer's protocols. Microarray data was uploaded into the free programming software R (R Foundation for Statistical Computing, Vienna, Austria) for processing and normalization. Gene Set Enrichment Analysis (GSEA) was used to assess enrichment of genes showing up- and down-regulation using GSEA graphical user interface (GUI) software (http://www.broadinstitute.org/gsea/)."}, "Colo-205 cells [3]": {"tested_on": "Colo-205 cells", "test": "In vivo PC cell line mouse model drug treatment (ascites groups)", "design": "species or system BALB/c nude mice", "conditions": "PPA cell-free ascites (PC085)-treated mice; 1.75 mM TM5441 i.p. every 3 days for 21 days; n=5 mice/group", "procedure": "To determine the efficacy of PAI-1 inhibition in different susceptibility ascites groups in vivo, 5×10^6 of Colo-205 cells were co-injected with cell-free ascites representative of PAI-1 paracrine addicted (PPA) group, co-activators predominant (CAP) group or foetal bovine serum (FBS) into abdominal cavity of 6- to 8-week-old BALB/c nude mice (female, n=5 mice/group) and treated with 1.75 mM TM5441 administered intraperitoneally. Ascites and drug treatment were performed by injecting 400 μL of 5% cell-free ascites or 10% foetal bovine serum (FBS) with TM5441 intraperitoneally every 3 days for a duration of 21 days. After 3 weeks, the mice were sacrificed and tumour burden was quantified based on a modified peritoneal carcinomatosis index (PCI) score and presented as total peritoneal carcinomatosis index (PCI) score. Total peritoneal carcinomatosis index (PCI) score was calculated based on the sum of score for each region and ranges from 0 to 39."}, "Colo-205 cells [4]": {"tested_on": "Colo-205 cells", "test": "In vivo PC cell line mouse model, drug concentration and delivery method (i.p. vs oral)", "design": "species or system BALB/c nude mice", "conditions": "PPA cell-free ascites (PC085); i.p. every 3 days up to 21 days; n=4 mice/group", "procedure": "To determine the optimal drug concentration and drug delivery method, a total of 16 female BALB/c nude mice with the age of 6-8 weeks old were selected for the experiment. Each mouse was injected with 5×10^6 of Colo-205 cells intraperitoneally. The mice were divided into 4 groups and given the following treatments: (i) 5% cell-free ascites with 1% DMSO, (ii) 5% cell-free ascites with 1 mM TM5441, (iii and iv) 5% cell-free ascites with 2 mM TM5441. Treatment was performed by injecting 400 μL of 5% cell-free ascites with DMSO vehicle/drug intraperitoneally (i-iii) and orally (iv) every 3 days, up to 21 days. After 3 weeks, the mice were sacrificed and tumour burden was quantified based on a modified peritoneal carcinomatosis index (PCI) score and presented as total peritoneal carcinomatosis index (PCI) score. Total peritoneal carcinomatosis index (PCI) score was calculated based on the sum of score for each region and ranges from 0 to 39."}, "[5]": {"tested_on": "patient-derived ascites-dependent xenograft (PDADX) tumours", "test": "Patient-derived ascites-dependent xenografts (PDADXs) drug treatment", "assay_type": "in vivo, BALB/c nude mice", "conditions": "2 mM TM5441 i.p. every 3 days for 21 days", "procedure": "Ascites collected from patients with peritoneal carcinomatosis were centrifuged at 2000 g for 10 minutes to concentrate the cellular components and to separate the fluid component. 1 mL of cell pellet was resuspended with 1 mL of ascitic fluid and 400 μL of the mixture was implanted intraperitoneally into 6-week-old BALB/c nude mice (n=5 mice) to generate patient-derived ascites-dependent xenograft (PDADX) passage 0 (P0). For subsequent passages, patient-derived ascites-dependent xenograft (PDADX) tumours were diced into small pieces using scalpel blades and passed through an 18-G syringe needle. Diced tumours were resuspended with matched patient's ascites at 1:1 ratio and implanted intraperitoneally into 6-week-old BALB/c nude mice (n=10 mice).\nMatched patient's cell-free ascites and its cellular components were used to generate patient-derived ascites-dependent xenografts (PDADXs) to better recapitulate peritoneal carcinomatosis patients. PAI-1 paracrine addicted (PPA) patient-derived ascites-dependent xenograft (PDADX) tumours (100 mg) were implanted into 16 female BALB/c nude mice intraperitoneally and co-activators predominant (CAP) patient-derived ascites-dependent xenograft (PDADX) tumours (100 mg) were implanted into 16 female BALB/c nude mice intraperitoneally. […] Tumour burden was quantified by weighing all visible tumours after mice were sacrificed.\nBriefly, co-activators predominant (CAP) patient-derived ascites-dependent xenograft (PDADX) tumours (100 mg) were implanted into 16 female BALB/c nude mice intraperitoneally. […] Tumour burden was quantified by weighing all visible tumours after mice were sacrificed."}},
  "data": [
    {"smiles": "O=C(COCC(=O)Nc1ccc(Cl)cc1C(=O)[O-])Nc1cccc(-c2ccoc2)c1.[Na+]", "note": "[TM5441, 5-Chloro-2-[[2-[2-[[3-(3-furanyl)phenyl]amino]-2-oxoethoxy]acetyl]amino]benzoic acid sodium salt]", "values": [
      {"measurement": "Sensitivity of cell-free ascites-treated Colo-205 cells to inhibitor (dose-response, cell proliferation)", "setting": "Colo-205 cells [1]", "result": "PAI-1 paracrine addicted (PPA) (n=18) being the most sensitive to PAI-1 inhibition, followed by co-activators predominant (CAP) (n=59) and alternative pathways activation (APA) (n=17)"},
      {"measurement": "Concentration needed to suppress STAT3 activation (p-STAT3 ELISA)", "setting": "phospho-STAT3 (Tyr705)", "result": "required a lower concentration of TM5441 to supress STAT3 activation"},
      {"measurement": "IL6-JAK-STAT3 signalling pathway regulation (GSEA)", "setting": "[2]", "result": "significantly down-regulated"},
      {"measurement": "Tumour burden (modified PCI score)", "setting": "Colo-205 cells [3]", "result": "significant reduction in tumour burden"},
      {"measurement": "Formation of peritoneal tumours (modified PCI score), intraperitoneal instillation", "setting": "Colo-205 cells [4]", "result": "effectively inhibited"},
      {"measurement": "Tumour burden (weight of all visible tumours), PC249 PDADX with PPA cell-free ascites (PC383)", "setting": "[5]; CAP PDADX (PC249) exposed to PC383 PPA ascites", "result": "became susceptible to PAI-1 inhibition"},
      {"measurement": "Tumour burden (weight of all visible tumours), PC249 PDADX with matched cell-free ascites", "setting": "[5]; CAP PDADX (PC249), matched CAP ascites", "result": "no reduction in tumour burden compared to vehicle control"},
      {"measurement": "Tumour burden (weight of all visible tumours), PC383 PDADX with matched cell-free ascites", "setting": "[5]; PPA PDADX (PC383), matched PPA ascites, n=4 mice/group", "result": "significantly superior inhibition of tumour growth compared to vehicle control"}
    ]},
    {"smiles": "CO[C@@]12[C@H](COC(N)=O)C3=C(C(=O)C(C)=C(N)C3=O)N1C[C@@H]1N[C@@H]12", "note": "[Mitomycin C]", "values": [
      {"measurement": "Sensitivity of cell-free ascites-treated Colo-205 cells to inhibitor (dose-response, cell proliferation)", "setting": "Colo-205 cells [1]", "result": "ineffective"}
    ]},
    {"smiles": "O=C(O)C(=O)c1cn(Cc2ccccc2)c2ccc(-c3ccc(OC(F)(F)F)cc3)cc12", "note": "[Tiplaxtinin, 2-(1-Benzyl-5-(4-(trifluoromethoxy)phenyl)-1H-indol-3-yl)oxoacetic acid]", "values": [
      {"measurement": "Sensitivity of cell-free ascites-treated Colo-205 cells to inhibitor (dose-response, cell proliferation)", "setting": "Colo-205 cells [1]", "result": "showed the same trend of differential response"}
    ]},
    {"smiles": "CC(=O)c1cc2c(o1)C(=O)c1ccccc1C2=O", "note": "[Napabucasin]", "values": [
      {"measurement": "Sensitivity of cell-free ascites-treated Colo-205 cells to inhibitor (dose-response, cell proliferation)", "setting": "Colo-205 cells [1]", "result": "ineffective"}
    ]},
    {"smiles": "Cn1c(=O)n(-c2ccc(C(C)(C)C#N)cc2)c2c3cc(-c4cnc5ccccc5c4)ccc3ncc21", "note": "[BEZ235]", "values": [
      {"measurement": "Sensitivity of cell-free ascites-treated Colo-205 cells to inhibitor (dose-response, cell proliferation)", "setting": "Colo-205 cells [1]", "result": "ineffective"}
    ]}
  ]
}
